Assays:
Type in all cases: in vivo
farmed Atlantic salmon = experiment: Observation of fish during field treatment; settings: 20 ppm, 60 minutes, well boat
Experimental: The effectiveness of imidacloprid against pre-adult and adult stages of L. salmonis and Caligus sp. infections on farmed Atlantic salmon was investigated by performing pre- and post-treatment sea lice counts on salmon undergoing a treatment with imidacloprid. This trial was conducted at a commercial salmon farm in Norway. The salmon were pumped onto a well boat and were exposed to 20 ppm imidacloprid for 60 minutes. The average weight of the salmon was 3.5 kg and the average number of salmon per pen was 180,000. 30 fish per pen were assessed for L. salmonis and Caligus sp., and the number of each L. salmonis life stage found was recorded. This was performed within 24 hours prior to treatment, and within 24 hours after treatment.
The numbers of sea lice observed per fish for this trial for each of the four tested pens according to sea lice life cycle state, pre- or post-administration of active are presented in Table 5.

Lepeophtheirus salmonis = experiment: Immersion treatment of sea lice challenged salmon with 10, 30 and 50 ppm imidacloprid; settings: for Abundance (and range) of adult female lice / Abundance (and range) of adult male lice / Abundance (and range) of ovigerous females / Mean abundance (and range) or all lice stages / Prevalence: lice counted week 8
Excerpt: Eight flow-through treatment tanks each containing 15 fish were set up. The fish were Salmon (Salmo salar) having an average weight of approximately 270 g and of mixed sex. Egg strings removed from ovigerous female Lepeophtheirus salmonis were collected and cultured until infective copepodids were produced. Eight bottles containing approximately 330-350 copepodids were each randomly allocated to a treatment tank (to provide an average of 22 lice per fish).
In preparation for the challenge, water flows in the tanks were stopped and light levels reduced. The lice were then added to each tank and the tanks maintained in total darkness for 6 hours after which light levels were raised and the water flow resumed.
The fish were challenged with sea lice for either one week or for six weeks.
One week after the sea lice challenge, fish in three of the tanks were treated with either 10 ppm w/v, 30 ppm w/v or 50 ppm w/v imidacloprid. One of the tanks was treated with 0.03% DMSO and another tank sham treated with sea water as controls.
For each treatment tank, the appropriate amount of imidacloprid (see Table 1) was dissolved in 100 ml of DMSO and mixed with approximately 900 ml of sea water from the experimental tank to obtain a treatment solution. The water flow on the experimental tanks was disabled and the treatment solution was then added.
Fish were exposed for 60 minutes in static water with full aeration and observed during the exposure period. At the end of the exposure period the water was rapidly drained to approximately ⅓ volume, before the flows were resumed in the tanks
Six weeks after the fish were challenged with sea lice, the fish in the three remaining treatment tanks were treated with either 10 ppm w/v, 30 ppm w/v or 50 ppm w/v imidacloprid. The treatment was carried out in the same way as for the treatment tanks one week post challenge (see 1.2.1).
Eight weeks after the fish were challenged with sea lice, the study was terminated. Fish were over anaesthetised in MS222 (tricaine methanesulfonate) and pithed using an Iki Jime tool. The length and weight of each fish and external symptoms were recorded. All lice were removed from each fish and note made of sex and stage of development. The lice were stored in ethanol and sex and stage confirmed using stereo microscope.
The data is expressed as prevalence and abundance. Prevalence is defined as the number of hosts infected with one of more individuals of a parasite species divided by the number of hosts examined (including infected and uninfected hosts) and expressed as a percentage.

salmon louse = experiment: Revival rates of sea lice after bath treatment
Experimental: Numbers of dissociated lice in tank water or attached to the tank walls were recorded. Lice in the tank water were collected and assessed for ability to attach by suction to a smooth plastic surface immediately after treatment and again after 30-60 minutes (to assess possible revival). Live and viable lice were also collected from the mock-treated control groups for reference and held in revival chambers for the same period of time to assess the system.
Remaining lice in the treatment bath were strained through a plankton mesh (2 mm pore size) that was suspended in a water bath with clean seawater. The lice in this collector were transferred to a plastic beaker (1 litre) and then again into a revival tube (5 cm diameter; 10 cm length). Lice that are able to attach to the walls of the treatment tanks or beaker within 3 minutes of completion of each test were scored as viable.

fish = experiment: Safety of imidacloprid treatment on fish
Experimental: The safety of the imidacloprid treatment on fish was assessed. Fish held in a flow through tank containing 271.8 L of sea water were exposed to 65 ppm w/v of the active ingredient imidacloprid. 17.67 g of imidacloprid was dissolved in 100 ml of dimethyl sulfoxide (DMSO) and the solution was added to approximately 900 ml sea water and mixed. The flow on the through tank was disabled and the solution of imidacloprid was added.
The fish were exposed to 65 ppm imidacloprid in static water for 1 hour and observed for behavioural changes at 5-10 minute intervals. The fish were then held for a further 7 days before being terminated.

[1] = 10 ppm w/v 60 min, treated 1 week post challenge
[2] = 10 ppm w/v 60 min, treated 6 weeks post challenge
[3] = 30 ppm w/v 60 min, treated 1 week post challenge
[4] = 30 ppm w/v 60 min, treated 6 weeks post challenge
[5] = 50 ppm w/v 60 min, treated 1 week post challenge, two fish removed from group
[6] = 50 ppm w/v 60 min, treated 6 weeks post challenge

O=[N+]([O-])NC1=NCCN1Cc1ccc(Cl)nc1 [imidacloprid]
adverse behaviours of fish throughout treatment (farmed Atlantic salmon): no adverse behaviours seen | prevalence of infection of all lice stages versus the two control groups (Lepeophtheirus salmonis; 10, 30 or 50 ppm w/v, treated one week post challenge, examined week 8): not considered to differ | Abundance (and range) of adult female lice (Lepeophtheirus salmonis; [1]): 0.067 (0-1) | Abundance (and range) of adult male lice (Lepeophtheirus salmonis; [1]): 0.87 (0-2) | Abundance (and range) of ovigerous females (Lepeophtheirus salmonis; [1]): 1.47 (0-3) | Mean abundance (and range) or all lice stages (Lepeophtheirus salmonis; [1]): 2.4 (1-5) | Prevalence (Lepeophtheirus salmonis; [1]): 100% | Abundance (and range) of adult female lice (Lepeophtheirus salmonis; [2]): 0 | Abundance (and range) of adult male lice (Lepeophtheirus salmonis; [2]): 0 | Abundance (and range) of ovigerous females (Lepeophtheirus salmonis; [2]): 0 | Mean abundance (and range) or all lice stages (Lepeophtheirus salmonis; [2]): 0 | Prevalence (Lepeophtheirus salmonis; [2]): 0% | infected fish (each with a single ovigerous female) (Lepeophtheirus salmonis; 10 ppm w/v, 6 weeks post challenge, 54 minutes after addition): 2 fish | lice remaining on fish (Lepeophtheirus salmonis; 10 ppm w/v, 6 weeks post challenge, 91 minutes after addition, louse stayed at least five days): a single male louse was observed on the head of its host | lice observed in the water column (Lepeophtheirus salmonis; 10 ppm w/v, 6 weeks post challenge, first 19 minutes after addition): Lice were not observed in the water column | Abundance (and range) of adult female lice (Lepeophtheirus salmonis; [3]): 0 (0-0) | Abundance (and range) of adult male lice (Lepeophtheirus salmonis; [3]): 0.8 (0-1) | Abundance (and range) of ovigerous females (Lepeophtheirus salmonis; [3]): 1.4 (0-3) | Mean abundance (and range) or all lice stages (Lepeophtheirus salmonis; [3]): 2.2 (0-4) | Prevalence (Lepeophtheirus salmonis; [3]): 93.33% | Abundance (and range) of adult female lice (Lepeophtheirus salmonis; [4]): 0 | Abundance (and range) of adult male lice (Lepeophtheirus salmonis; [4]): 0 | Abundance (and range) of ovigerous females (Lepeophtheirus salmonis; [4]): 0 | Mean abundance (and range) or all lice stages (Lepeophtheirus salmonis; [4]): 0 | Prevalence (Lepeophtheirus salmonis; [4]): 0% | lice on the fish with re-attached lice (Lepeophtheirus salmonis; 30 ppm w/v, 6 weeks post challenge, 6 minutes after the 78 minute observation): no lice were observed on these fish | lice observed in the water column (Lepeophtheirus salmonis; 30 ppm w/v, 6 weeks post challenge, 10 minutes after addition): 1-2 lice | lice present in the water column (Lepeophtheirus salmonis; 30 ppm w/v, 6 weeks post challenge, 18 minutes after addition): approximately 10 lice | lice noted in the water (Lepeophtheirus salmonis; 30 ppm w/v, 6 weeks post challenge, 25 minutes after addition): approximately 20 lice | fish appearing infected (estimated 1-2 lice per fish) (Lepeophtheirus salmonis; 30 ppm w/v, 6 weeks post challenge, 25 minutes after addition, 15 fish per tank): less than 6 fish | infection status of fish (Lepeophtheirus salmonis; 30 ppm w/v, 6 weeks post challenge, 33 minutes after addition): most fish were considered to be negative for any lice infections | fish appearing infected (each with a single louse) (Lepeophtheirus salmonis; 30 ppm w/v, 6 weeks post challenge, 47 minutes after addition): 3 fish | infection status of fish (Lepeophtheirus salmonis; 30 ppm w/v, 6 weeks post challenge, 59 minutes after addition): no fish were visibly infected with lice | fish with re-attached louse (1 louse each) (Lepeophtheirus salmonis; 30 ppm w/v, 6 weeks post challenge, 78 minutes after addition): 4 fish | lesions associated with feeding and attachment of lice (Lepeophtheirus salmonis; 30 ppm w/v, two days post-treatment): almost completely resolved | Abundance (and range) of adult male lice (Lepeophtheirus salmonis; [5]): 1.23 (0-3) | Abundance (and range) of ovigerous females (Lepeophtheirus salmonis; [5]): 1.69 (0-5) | Abundance (and range) of adult female lice (Lepeophtheirus salmonis; [6]): 0 | Abundance (and range) of adult male lice (Lepeophtheirus salmonis; [6]): 0 | Abundance (and range) of ovigerous females (Lepeophtheirus salmonis; [6]): 0 | Mean abundance (and range) or all lice stages (Lepeophtheirus salmonis; [6]): 0 | Prevalence (Lepeophtheirus salmonis; [6]): 0% | fish noted as infected (each with a single louse) (Lepeophtheirus salmonis; 50 ppm w/v, 6 weeks post challenge, 44 minutes after addition, 15 fish per tank): five | fish with a single louse infection (Lepeophtheirus salmonis; 50 ppm w/v, 6 weeks post challenge, 53 minutes after addition): 2-3 fish | lice remaining on fish (Lepeophtheirus salmonis; 50 ppm w/v, 6 weeks post challenge, 58 minutes after addition): only one louse was apparent on a single fish | lice remaining on fish (Lepeophtheirus salmonis; 50 ppm w/v, 6 weeks post challenge, 81 minutes after addition): no lice were visible on the fish | lice detached from the host, free in the water column (Lepeophtheirus salmonis; 50 ppm w/v, 6 weeks post challenge, after 12 minutes): approximately 10 lice | lice observed in the water column (Lepeophtheirus salmonis; 50 ppm w/v, 6 weeks post challenge, after 18 minutes): approximately 20 lice | lice observed in the water column (Lepeophtheirus salmonis; 50 ppm w/v, 6 weeks post challenge, between 2 and 6 minutes after addition): No lice were observed | lesions associated with feeding and attachment of lice (Lepeophtheirus salmonis; 50 ppm w/v, two days post treatment): almost completely resolved | effectiveness against motile parasitic stages of lice (Lepeophtheirus salmonis; all treatment doses (10, 30, 50 ppm w/v), treated six weeks after challenge): 100% | overall lice abundances compared with the DMSO control (Lepeophtheirus salmonis; treated one week post challenge): No significant differences | % active at 30-60 min. post-treatment, Attached lice collected from fish (salmon louse; 20 ppm 30 min, n lice 9): 11.1% | % active at 30-60 min. post-treatment, Detached lice collected from tank water (salmon louse; 20 ppm 30 min, n lice 23): 4.3% | % active at 30-60 min. post-treatment, Detached lice collected from tank water (salmon louse; 20 ppm 60 min, n lice 20): 0.0% | % active at 30-60 min. post-treatment, Detached lice collected from tank water (salmon louse; 50 ppm 30 min, n lice 31): 0.0% | % active at 30-60 min. post-treatment, Detached lice collected from tank water (salmon louse; 100 ppm 3 min, n lice 3): 33.3% | % active at 30-60 min. post-treatment, Detached lice collected from tank water (salmon louse; 100 ppm 15 min, n lice 28): 0.0% | % active at 30-60 min. post-treatment, Attached lice collected from fish (salmon louse; 200 ppm 5 min, n lice 13): 0.0% | % active at 30-60 min. post-treatment, Detached lice collected from tank water (salmon louse; 200 ppm 5 min, n lice 13): 0.0% | % active at 30-60 min. post-treatment, Detached lice collected from tank water (salmon louse; 200 ppm 15 min, n lice 43): 0.0% | adverse reactions during monitoring after exposure (fish; 65 ppm w/v for 1 hour, monitored a further 7 days): no adverse reactions being noted | external pathologies on termination (fish; 65 ppm w/v for 1 hour, terminated after 7 days): no external pathologies were noted | changes in fish behaviour during the exposure period (fish; 65 ppm w/v, static water, 1 hour): No observable changes in fish behaviour
